Data as given in patent US20250263404A1, “AMINOPYRIDINES AS ACTIVATORS OF PI3 KINASE” (UCL Business Ltd, priority 2021, published 2025).

Biological target: PI3Kα (Homo sapiens, UniProt P42336)
Assay: pAKT S473 ELISA in A549 cells (PI3Kα activation)
Format: cell-based
Design: endogenous in cells; host or cells: A549
Conditions: for EC50: A549 cells, 15 min treatment, pAKT S473 ELISA, normalised to Emax of 1 μM insulin, read-out: Av EC50; for Emax at 10 µM: A549, 0.25 h, read-out: <50% response at 10 μM
Description: EC50 values were determined by quantifying phosphorylation on S473 residues of Akt in A549 human adenocarcinoma cells by ELISA (enzyme linked immunoadsorbent assay, R&D Systems, DYC887BE). A549 cells were seeded into 96-well plates (50,000 cells/well) in DMEM supplemented with 10% foetal bovine serum and 1% penicillin-streptomyocin. Following 24 h in culture cells were starved for 24 h in serum-free DMEM before 15 minute treatment with a concentration response curve of compounds. Experimental compounds were diluted in DMSO into […] 1:3 concentration response curves in polypropylene V-bottom plates (SLS MIC9050). Concentration response curves were diluted to a 3× stock in serum-free DMEM. Standard 8-point concentration response curves were performed at 50, 16.7, 5.6, 1.9, 0.6, 0.2, 0.07, 0.02 μM and serum-free DMEM containing 0.5% DMSO was used as a negative control. […] A549 cells were seeded at 50,000 cells per well in 96-well plates in DMEM (10% FBS+1% P/S). The next day cells were washed once with PBS before addition of serum-free DMEM for 24 h. On the day of treatment cells, were incubated in fresh serum-free DMEM prior to treatment. Compounds solubilised to 10 mM in DMSO were diluted 1:3 in an 8-point concentration response curve in DMSO. Concentration response curves were diluted in serum-free DMEM by transfer into intermediate plates using a BRAVO liquid handler (Agilent). Intermediate plates were then used to treat cell plates using the BRAVO liquid handler. Compound concentration response curves had atop concentration of 50 μM and a final well concentration of 0.5% DMSO. Cell plates were treated for 15 min at 37° C., 5% CO2 before being washed with ice-cold PBS and lysed in lysis buffer 6 (R&D Systems #895561) and freezing at −80° C. Levels of pAKT-S473 were determined using the phospho-AKT (S473) pan-specific Duoset IC ELISA (R&D Systems #DYC887BE) in 96-well white high-binding plates (Corning #3922) according to manufacturer's instructions. Endpoint luminescence was measured using a Sense (Hidex) platereader. […] Data were transformed and EC50 data were determined by variable slope (4 parameters) non-linear regression using Prism 7 (Graphpad).

Sequence of PI3Kα (P42336 whole entry): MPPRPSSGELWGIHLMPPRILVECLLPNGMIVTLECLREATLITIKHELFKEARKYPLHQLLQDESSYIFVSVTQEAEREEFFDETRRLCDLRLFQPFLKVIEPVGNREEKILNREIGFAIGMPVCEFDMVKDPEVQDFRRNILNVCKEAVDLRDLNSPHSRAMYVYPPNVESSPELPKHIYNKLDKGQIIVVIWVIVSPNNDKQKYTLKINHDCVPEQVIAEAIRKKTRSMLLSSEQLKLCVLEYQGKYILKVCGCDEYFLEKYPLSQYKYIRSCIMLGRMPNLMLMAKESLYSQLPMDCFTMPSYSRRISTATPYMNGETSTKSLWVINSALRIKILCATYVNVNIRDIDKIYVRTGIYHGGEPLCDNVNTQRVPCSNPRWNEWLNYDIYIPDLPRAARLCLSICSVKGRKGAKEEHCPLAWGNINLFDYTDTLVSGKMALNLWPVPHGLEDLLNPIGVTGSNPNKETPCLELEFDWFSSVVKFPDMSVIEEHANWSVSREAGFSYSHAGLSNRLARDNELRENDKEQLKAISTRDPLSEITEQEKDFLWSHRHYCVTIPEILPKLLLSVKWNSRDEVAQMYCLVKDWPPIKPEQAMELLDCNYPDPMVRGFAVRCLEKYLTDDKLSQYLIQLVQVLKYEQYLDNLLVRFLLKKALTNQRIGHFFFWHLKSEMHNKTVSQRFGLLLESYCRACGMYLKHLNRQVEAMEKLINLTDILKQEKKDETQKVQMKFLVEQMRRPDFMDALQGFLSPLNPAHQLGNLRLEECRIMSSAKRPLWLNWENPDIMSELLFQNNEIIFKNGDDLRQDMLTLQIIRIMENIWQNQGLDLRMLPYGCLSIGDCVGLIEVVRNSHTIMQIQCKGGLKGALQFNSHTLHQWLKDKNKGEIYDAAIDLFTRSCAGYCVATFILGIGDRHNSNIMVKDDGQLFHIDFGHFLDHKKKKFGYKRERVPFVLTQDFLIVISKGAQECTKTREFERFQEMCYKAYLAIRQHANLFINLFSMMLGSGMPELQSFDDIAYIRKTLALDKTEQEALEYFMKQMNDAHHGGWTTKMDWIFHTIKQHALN
Sequence of PI3Kα (P27986 whole entry partner): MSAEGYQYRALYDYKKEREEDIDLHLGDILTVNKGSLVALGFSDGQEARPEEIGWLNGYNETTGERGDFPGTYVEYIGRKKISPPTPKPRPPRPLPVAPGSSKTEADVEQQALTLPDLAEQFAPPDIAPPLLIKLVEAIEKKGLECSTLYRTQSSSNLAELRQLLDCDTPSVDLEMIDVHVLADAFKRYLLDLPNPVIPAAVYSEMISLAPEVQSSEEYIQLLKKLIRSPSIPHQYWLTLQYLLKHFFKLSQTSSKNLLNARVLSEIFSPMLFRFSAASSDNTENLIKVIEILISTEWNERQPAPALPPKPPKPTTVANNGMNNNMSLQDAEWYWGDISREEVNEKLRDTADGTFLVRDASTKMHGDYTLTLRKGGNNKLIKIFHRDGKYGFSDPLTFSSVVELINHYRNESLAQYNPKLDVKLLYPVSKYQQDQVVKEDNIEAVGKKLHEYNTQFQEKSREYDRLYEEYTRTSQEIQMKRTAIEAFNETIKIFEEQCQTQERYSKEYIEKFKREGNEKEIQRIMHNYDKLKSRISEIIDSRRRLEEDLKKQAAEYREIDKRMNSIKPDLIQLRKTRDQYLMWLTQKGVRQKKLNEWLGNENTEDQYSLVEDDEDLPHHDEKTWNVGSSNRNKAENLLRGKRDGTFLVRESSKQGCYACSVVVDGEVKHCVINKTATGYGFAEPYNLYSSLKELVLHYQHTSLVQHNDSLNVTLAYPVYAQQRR

| EC50 [µM] | Emax at 10 µM [%] | SMILES |
| --- | --- | --- |
| 2.51 |  | COc1cc(N2CCN(C)CC2)ccc1Nc1cc(Nc2cccc(NS(C)(=O)=O)c2)ccn1 [60 (2054)] |
| 2.61 |  | CNC(=O)c1ccc(Nc2ccnc(Nc3ccc(N4CCN(C)CC4)cc3OC)c2)cc1 [61 (2055)] |
| 1.29 | < 50 | COc1cc(N2CCN(C)CC2)ccc1Nc1cc(Nc2cccc3nccnc23)ccn1 [62 (2056)] |
| > 50 | < 50 | COc1cc(N2CCN(C)CC2)ccc1Nc1cc(Nc2cccc3[nH]ccc23)ccn1 [63 (2057)] |
| 1.58 |  | COc1cc(N2CCN(C)CC2)ccc1Nc1cc(Nc2cccnc2)ccn1 [64 (2061)] |
| 1.53 |  | COc1cc(N2CCN(C)CC2)ccc1Nc1cc(Nc2cccc(-n3ccnc3)c2)ccn1 [65 (2063)] |
| 17.3 |  | COc1cc(N2CCN(C)CC2)ccc1Nc1cc(Nc2cccc(-n3cnnc3)c2)ccn1 [66 (2064)] |
| > 50 | < 50 | COc1cc(N2CCN(C)CC2)ccc1Nc1cc(Nc2ncccc2C#N)ccn1 [67 (2066)] |
| 4 |  | CC(=O)N1CCc2cccc(Nc3ccnc(Nc4cccc5ncccc45)c3)c21 [68 (2067)] |
| > 50 |  | C#Cc1cccc(Nc2cc(Nc3cccc4c3N(C(C)=O)CC4)ccn2)c1 [69 (2069)] |
| 0.39 | < 50 | CC(=O)N1CCc2cccc(Nc3ccnc(Nc4cc(C(C)C)nn4C)c3)c21 [70 (2070)] |
| 6.54 | < 50 | CC(=O)N1CCc2cccc(Nc3ccnc(Nc4cccc5ccncc45)c3)c21 [71 (2071)] |
| 1.08 |  | CC(=O)N1CCc2cc(Nc3cc(Nc4cccc5c4N(C(C)=O)CC5)ccn3)ccc21 [72 (2072)] |
| 0.5 | < 50 | CC(=O)N1CCc2ccc(Nc3cc(Nc4cccc5c4N(C(C)=O)CC5)ccn3)cc21 [73 (2073)] |
| > 50 |  | CC(=O)N1CCc2cccc(Nc3ccnc(Nc4ccc(-c5ccccc5)cn4)c3)c21 [74 (2079)] |
| > 19 | < 50 | CC(=O)N1CCc2cccc(Nc3ccnc(Nc4ccc(C(=O)N(C)C)cc4)c3)c21 [75 (2101)] |
| 2.2 |  | CCN1CCN(c2ccc(Nc3cc(Nc4cc(C(C)(C)C)nn4C)ccn3)cc2)CC1 [76 (2102)] |
| 2.09 |  | CCN1CCN(c2ccc(Nc3cc(Nc4cc(C(C)C)nn4C)ccn3)cc2)CC1 [77 (2103)] |
| 1.98 |  | CCN1CCN(c2ccc(Nc3cc(Nc4cccc(C(=O)NC)c4)ccn3)cc2)CC1 [78 (2104)] |
| 8.31 |  | CCN1CCN(c2ccc(Nc3cc(Nc4ccc(C(=O)NC)cc4)ccn3)cc2)CC1 [79 (2105)] |
| ≥ 50 |  | CCN1CCN(c2ccc(Nc3cc(Nc4ccncn4)ccn3)cc2)CC1 [80 (2106)] |
| 5.33 |  | CCN1CCN(c2ccc(Nc3cc(Nc4cccc(-n5ccnc5)c4)ccn3)cc2)CC1 [81 (2107)] |
| 1.52 |  | CCN1CCN(c2ccc(Nc3cc(Nc4cccc(S(C)(=O)=O)c4)ccn3)cc2)CC1 [82 (2108)] |
| 2.78 | < 50 | CC(=O)N1CCc2cc(Nc3cc(Nc4cc(C(C)(C)C)nn4C)ccn3)ccc21 [83 (2109)] |
| > 27.2 | < 50 | CC(=O)N1CCc2cc(Nc3cc(Nc4cc(C(C)C)nn4C)ccn3)ccc21 [85 (2110)] |

| EC50 [µM] | Emax at 10 µM [%] | SMILES |
| --- | --- | --- |
| > 29 | < 50 | CNC(=O)c1cccc(Nc2ccnc(Nc3ccc4c(c3)CCN4C(C)=O)c2)c1 [86 (2111)] |
| > 27 | < 50 | CNC(=O)c1ccc(Nc2ccnc(Nc3ccc4c(c3)CCN4C(C)=O)c2)cc1 [87 (2112)] |
| > 50 | < 50 | CC(=O)N1CCc2cc(Nc3cc(Nc4cccc(S(C)(=O)=O)c4)ccn3)ccc21 [88 (2115)] |
| > 50 | < 50 | CNC(=O)c1ccc(Nc2cc(Nc3cc(C(C)(C)C)nn3C)ccn2)cc1 [89 (2116)] |
| > 50 | < 50 | CNC(=O)c1ccc(Nc2cc(Nc3cc(C(C)C)nn3C)ccn2)cc1 [90 (2117)] |
| 2.29 |  | COc1cc(C(=O)N2CCOCC2)ccc1Nc1cc(Nc2cccc3c2N(C(C)=O)CC3)ccn1 [91 (2347)] |
| > 10.4 |  | CC(=O)N1CCc2cccc(Nc3ccnc(Nc4ccc(C(=O)N5CCOCC5)cc4)c3)c21 [92 (2348)] |
| 5.18 |  | CNC(=O)c1ccc(Nc2cc(Nc3cccc4c3N(C(C)=O)CC4)ccn2)c(OC)c1 [93 (2349)] |
| 4.56 |  | CC(=O)N1CCc2cccc(Nc3ccnc(Nc4ccc(N5CCOCC5)cc4C)c3)c21 [94 (2350)] |
| 14.7 |  | CC(=O)N1CCc2cccc(Nc3ccnc(Nc4ccc(N5CCN(C)CC5)cc4C)c3)c21 [95 (2351)] |
| > 0.505 | < 50 | COc1cc(N2CC3(COC3)C2)ccc1Nc1cc(Nc2cccc3c2N(C(C)=O)CC3)ccn1 [96 (2353)] |
| 0.97 |  | COc1cc(N2CCN(C3CC3)CC2)ccc1Nc1cc(Nc2cccc3c2N(C(C)=O)CC3)ccn1 [97 (2354)] |
| > 50 |  | CC(=O)N1CCc2cccc(Nc3ccnc(Nc4ccnc5ccccc45)c3)c21 [98 (2355)] |
| > 50 | < 50 | CCN1CCN(c2ccc(Nc3cccc(Nc4cccc5c4N(C(C)=O)CC5)c3)cc2)CC1 [99 (2346)] |
| 4.78 | < 50 | COc1ccccc1Nc1cc(Nc2cccc3c2N(C(C)=O)CC3)ccn1 [99 (2356)] |
| > 50 |  | COc1cc(C#N)ccc1Nc1cc(Nc2cccc3c2N(C(C)=O)CC3)ccn1 [100 (2357)] |
| > 50 |  | CC(=O)N1CCc2cccc(Nc3ccnc(Nc4cccc(NS(C)(=O)=O)c4)c3)c21 [101 (2358)] |
| > 50 |  | CC(=O)N1CCc2cccc(Nc3ccnc(Nc4cccc(S(C)(=O)=O)c4)c3)c21 [102 (2359)] |
| > 50 | < 50 | COc1cc(N2CCN(C)CC2)ccc1Nc1cc(-c2cccc(C(=O)N(C)C)c2)ccn1 [103 (1940)] |
| 1.55 |  | COc1ccc(S(C)(=O)=O)cc1Nc1cc(Nc2cccc3c2N(C(C)=O)CC3)ccn1 [R1 (1888)] |
| 1.62 |  | COc1cc(N2CCN(C)CC2)ccc1Nc1cc(Nc2cccc3c2N(C(C)=O)CC3)c(F)cn1 [R2 (1890)] |
| 1.96 |  | COc1cc(Nc2cc(Nc3cccc4c3N(C(C)=O)CC4)ccn2)cc(OC)c1OC [R3 (1887)] |
| 2.55 |  | COc1cc(N2CCN(C)CC2)ccc1Nc1cc(Nc2cccc3c2N(C(C)=O)CC3)ccn1 [R4 (1889)] |
| 0.59 | < 50 | CC(=O)N1CCc2cccc(Nc3ccnc(-c4cnn(C5CCNCC5)c4)c3)c21 [R5 (1962)] |
